The results in this text go back to PMC12150283, “Synthesis of new Ag(I) and Cd(II) hydrozanomide-based complexes with antibacterial and anticancer properties” (RSC Advances, 2025).

Series [1] has as its system Salmonella typhimurium ATCC 14028. Kind of series: MIC determination. The class given is cell-based. As to conditions: 18 h. The protocol: (§1) The antibacterial activity of tested samples was assessed against both gram-positive bacteria (Staphylococcus aureus ATCC 25923, Staphylococcus aureus ATCC 6538, Staphylococcus epidermidis ATCC 12228, Enterococcus faecalis ATCC 29212, Listeria monocytogenes ATCC 19115, Bacillus subtilis ATCC 6633, Bacillus cereus ATCC 10876) and gram-negative bacteria (Escherichia coli ATCC 10530, Salmonella typhimurium ATCC 14028). Antibacterial properties were evaluated using both the dilution method (employing DMSO and 96-well plates) and the diffusion-well method (using Mueller Hinton Agar, Merck, Germany).
(§2) The minimum inhibitory concentrations (MICs) of the tested samples were evaluated against a panel of reference microorganisms obtained from the American Type Culture Collection (ATCC), including Gram-negative bacteria (Escherichia coli ATCC 10530, Salmonella typhimurium ATCC 14028), and Gram-positive bacteria (Staphylococcus aureus ATCC 25923, Staphylococcus aureus ATCC 6538, Staphylococcus epidermidis ATCC 12228, Enterococcus faecalis ATCC 29212, Listeria monocytogenes ATCC 19115, Bacillus subtilis ATCC 6633), and one strain (Bacillus cereus ŁOCK 0807) obtained from the Pure Culture of Industrial Microorganisms of the Institute of Fermentation Technology and Microbiology ŁOCK 105 (Łódź, Poland).
(§3) The microorganism cultures with a density of 1.5 × 10^8 CFU mL^−1 (corresponding to a McFarland standard of 0.5) were plated on Mueller–Hinton Agar (Merck, Germany) following the procedures recommended by the European Committee on Antimicrobial Susceptibility Testing (EUCAST).[47] Wells measuring 10 mm in diameter were cut into the medium. The tested compounds were dissolved in a DMSO solution, which was recommended due to their chemical structures. Subsequently, 100 μL of prepared solutions containing the tested compounds at concentrations ranging from x μg mL^−1 to x μg mL^−1 were added to each well. The plates were incubated at 30 °C (for Bacillus subtilis and Bacillus cereus) or 37 °C (for other bacteria) for 18 hours. After incubation, the minimum inhibitory concentration (MIC value) was determined (the lowest concentration of the tested compounds that prevents bacterial growth) and expressed in μg mL^−1. The experiment was conducted in three independent replicates. Ciprofloxacin (Sigma Aldrich, Saint Louis, MO, USA) was used as a reference antimicrobial agent against Gram-negative bacteria, while vancomycin (Sigma Aldrich, Saint Louis, MO, USA) was used as a reference antimicrobial agent against Gram-positive bacteria.

The test system of series [2] is Escherichia coli ATCC 10530. Put plainly: MIC determination. The class given is cell-based. As to conditions: Escherichia coli ATCC 10530; 18 h. The procedure: as §1, §2, §3
Series [3] concerns normal skin fibroblast BJ cells. Put plainly: MTT cell viability assay. The class given is cell-based, human. As to conditions: BJ normal fibroblasts, 48 hours of incubation. The procedure:
(§4) The glioblastoma cell lines LN-229 and U87 and the reference human normal skin fibroblast BJ were obtained from the American Type Culture Collection (ATCC). Cells were grown as monolayers when cultured in cell culture flasks and cultured in Dulbecco's Modified Eagle Medium (DMEM) – LN-229 and Eagle's Minimum Essential Medium (EMEM) – U87 and BJ, supplemented with 10% (v/v) fetal bovine serum, penicillin (10 000 U mL^−1), streptomycin (10 mg mL^−1) and amphotericin B (250 μg mL^−1). The cells were incubated at 37 °C, 5% CO2 atmosphere. The cells were maintained in the logarithmic growth phase by regular passage at 80% confluence.
(§5) The cytotoxicity of the tested compounds was evaluated against both human glioblastoma LN-229 and U-87 as well as normal BJ cell lines. The cells were plated in 96-well culture plates (2 × 10^4 well) and after 24 h incubation the cells were treated with the tested compounds in the concentration range 1–50 μM. The cells were cultured for the next 48 h. The cytotoxicity of the compounds was evaluated using the MTT colorimetric method as previously described.[28,29] IC50 values were determined using the AAT Bioquest IC50 calculator as the concentration of compounds capable of reducing cell viability by 50%. The experiment was performed in triplicate for each concentration. To examine the cytotoxic effect of compounds on cell morphology, cells were examined under an inverted phase contrast microscope Nikon Eclipse Ti with NIS Element software (Tokyo, Japan).

The test system of another series is glioblastoma U87 cells. Put plainly: MTT cell viability assay. The class given is cell-based, human. Conditions: 48 hours of incubation. The protocol: as §4, §5
For series [4], the system named is glioblastoma LN-229 cells. Kind of series: MTT cell viability assay. The class given is cell-based, human. As to conditions: 48 hours of incubation. The protocol: as §4, §5
In series [5] the test system is Bacillus cereus ŁOCK 0807. Kind of series: MIC determination. The class given is cell-based. As to conditions: 18 h. The protocol: as §1, §2, §3
In series [6] the test system is Listeria monocytogenes ATCC 19115. Put plainly: MIC determination. The class given is cell-based. As to conditions: Listeria monocytogenes ATCC 19115, 18 h. The protocol:
as §1, §2, §3

The subject of series [7] is Staphylococcus epidermidis ATCC 12228. Put plainly: MIC determination. Conditions: S. epidermidis ATCC 12228, 18 h. The class given is cell-based. The procedure:
as §1, §2, §3

The subject of series [8] is Staphylococcus aureus ATCC 25923. Kind of series: MIC determination. The class given is cell-based. As to conditions: S. aureus ATCC 25923, 18 h. The procedure: as §1, §2, §3
Series [9] has as its system Bacillus subtilis ATCC 6633. Kind of series: MIC determination. The class given is cell-based. The procedure:
as §1, §2, §3

Series [10] has as its system Enterococcus faecalis ATCC 29212. Kind of series: MIC determination. The class given is cell-based. Conditions: E. faecalis ATCC 29212, 18 h. The protocol:
as §1, §2, §3

The test system of series [11] is Staphylococcus aureus ATCC 6538. Kind of series: MIC determination. The class given is cell-based. As to conditions: S. aureus ATCC 6538, 18 h. The protocol: as §1, §2, §3
In the next series the test system is S. aureus ATCC 25923. Kind of series: Diffusion-well method, inhibition zones. The class given is cell-based, Staphylococcus aureus. As to conditions: 500 µg/mL, wells 10 mm. The protocol:
as §1
(§6) 24 hour bacterial cultures with a density of 1–2 × 10^8 CFU mL^−1 were plated (0.1 mL) on Mueller–Hinton Agar (Merck, Germany). Subsequently, wells with a diameter of 10 mm were cut out from and filled with 100 μL of the tested compound at a concentration of 10–500 μg mL^−1 (diluted in DMSO). After an 18-hour incubation at either 30 °C (for Bacillus ssp.) or 37 °C (for other tested microorganisms), the inhibition zones around the wells were measured, and the results were expressed in millimetres (Table S9 ^†).

The nature of series [12]: Time-dependent UV-vis solution stability in DMSO. The class given is physicochemical. Conditions: 0 min to 48 h, room temperature. An excerpt: The stability of metal complexes is a crucial property that provides insight into their interactions with biological molecules, as it directly impacts their reactivity, bioavailability, and effectiveness in therapeutic applications. Additionally, the solubility of these complexes in dimethyl sulfoxide (DMSO) is of considerable importance, as solubility data are essential for optimizing storage conditions and ensuring compatibility with biological assays.[39] DMSO, a widely used solvent in drug discovery, serves as a medium that supports the stability and bioavailability of complexes under assay conditions, which is critical for maintaining the integrity of analytical protocols and enabling accurate assessments of biological activity. For the obtained complexes, the time-dependent UV-vis investigations in DMSO (Fig. 5 and S9 ^†) were carried out from 0 min to 48 h (0 min, 30 min, 1 h, 2 h, 3 h, 24 h, 48 h).
The sample solutions (50 μL (1.0 × 10^−3 M)) of the complexes were prepared in DMSO (Sigma Aldrich, ≥99.9%). The absorption spectra of the complexes were measured with increasing time (0 min, 30 min, 60 min, 2 h, 3 h, 24 h, 48 h) at room temperature. All measurements were performed on the Shimadzu UV-2401PC.

The test system of the next series is E. coli ATCC 10530. Kind of series: Diffusion-well method, inhibition zones. The class given is cell-based, Escherichia coli. As to conditions: 500 µg/mL, wells 10 mm. The procedure:
as §1, §6

The test system of the next series is S. aureus ATCC 6538. Put plainly: Diffusion-well method, inhibition zones. The class given is cell-based, Staphylococcus aureus. As to conditions: 500 µg/mL, wells 10 mm. The protocol:
as §1, §6

The next series relates to E. faecalis ATCC 29212. Put plainly: Diffusion-well method, inhibition zones. The class given is cell-based, Enterococcus faecalis. As to conditions: 500 µg/mL, wells 10 mm. The protocol:
as §1, §6

Series [13] has as its system L. monocytogenes ATCC 19115. Kind of series: Diffusion-well method, inhibition zones. The class given is cell-based, Listeria monocytogenes. Conditions: 500 µg/mL, wells 10 mm. The protocol: as §1, §6
The subject of another series is B. cereus ŁOCK 0807. Kind of series: Diffusion-well method, inhibition zones. The class given is cell-based, Bacillus cereus. As to conditions: 500 µg/mL, wells 10 mm.

One may read the MIC as the least concentration at which growth counts as inhibited. By IC50 is commonly meant the concentration that gives 50% inhibition.

Values after ≈ are worked out from the molar mass of the structure shown. Where two headings read alike, the source gives them in different places.

As for `O=C(O)c1cn(C2CC2)c2cc(N3CCNCC3)c(F)cc2c1=O` [Ciprofloxacin, reference compound], the minimum inhibitory concentration (MIC) in series [1] (Salmonella enterica) and in series [2] was 1 µg/mL (≈ 3.02 µM) throughout.

For `N.N.[Cl][Pt][Cl]` [Cisplatin, reference compound], the values for the IC50 (in series [3]; in the series on glioblastoma U87 cells; in series [4]) were more than 50 µM, 39.6 ± 1.13 µM and 29.09 ± 0.23 µM, respectively.

Regarding `NC(=NN=Cc1ccccc1)c1cc(Cl)ccn1.[Cd+2].[Cl-].[Cl-]` [Complex 8, CdL3Cl2], the MIC is more than 500 µg/mL in series [5] (Bacillus cereus ŁOCK 0807); more than 500 µg/mL in series [6]; more than 500 µg/mL in [7]; more than 500 µg/mL in series [1] (S. typhimurium ATCC 14028); 100 µg/mL in [8]; more than 500 µg/mL in series [9] (18 h). Besides, the figures for the MIC in series [10], in series [11] and in series [2] were more than 500 µg/mL, 500 µg/mL and 10 µg/mL, respectively. Also, the Inhibition zone in the series on S. aureus ATCC 25923 turned out to be 15 mm; in the series with E. coli ATCC 10530, 20 mm. This compound also showed a hypochromic effect in series [12] of 36.3%. Moreover, the “shift of peak maxima” value in series [12] was 4 nm. The IC50 in series [3] is 25.8 ± 4.48 µM; in the series with glioblastoma U87 cells, 10.9 ± 3.8 µM; in [4] it was more than 50 µM.

With `NC(=NN=Cc1ccc([N+](=O)[O-])cc1)c1cccc(N2CCCC2)n1.[Cd+2].[Cl-].[Cl-]` [Complex 9, CdL4Cl2], the MIC is 250 µg/mL in series [5] (Bacillus cereus ŁOCK 0807); 500 µg/mL in [6]; more than 500 µg/mL in series [7]; more than 500 µg/mL in series [1] (S. typhimurium ATCC 14028); 10 µg/mL in [8]; more than 500 µg/mL in series [9] (18 h). For the same compound, the MIC in [10] was 10 µg/mL; in series [11], 250 µg/mL; in series [2], 10 µg/mL. For the same compound, the Inhibition zone in the series on S. aureus ATCC 6538 amounted to 13 mm; in the series with S. aureus ATCC 25923, 16 mm; in the series on E. coli ATCC 10530 it was 20 mm; with E. faecalis ATCC 29212, 14 mm; in [13] it was 12 mm; in the series on B. cereus ŁOCK 0807, 13 mm. Further, the figures for the half-maximal inhibitory concentration (IC50) (in series [3]; in the series with glioblastoma U87 cells; in series [4]) were 1.05 ± 0.32 µM, more than 50 µM and 45.3 ± 2.18 µM, respectively.

Regarding `N/C(=N\N=C\c1ccc([N+](=O)[O-])cc1)c1cccc(Cl)n1` [Complex L2, 6-chloro-N′-(4-nitrobenzylidene) picolinohydrazonamide], the half-inhibitory concentration (IC50) in [3] (Homo sapiens) is 35.5 ± 4.33 µM; in the series on glioblastoma U87 cells (Homo sapiens, U-87 MG), more than 50 µM; in series [4] (Homo sapiens) it was 40.8 ± 6.12 µM.

For the compound `NC(=NN=Cc1ccccc1)c1cc(Cl)ccn1` [Complex L3, N′-(benzylidene)-4-chloropicolinohydrazonamide], the IC50 is more than 50 µM in series [3] (Homo sapiens); more than 50 µM in the series with glioblastoma U87 cells (Homo sapiens, U-87 MG); more than 50 µM in series [4] (Homo sapiens).

Take `CN[C@H](CC(C)C)C(=O)N[C@H]1C(=O)N[C@@H](CC(N)=O)C(=O)N[C@H]2C(=O)N[C@H]3C(=O)N[C@H](C(=O)N[C@H](C(=O)O)c4cc(O)cc(O)c4-c4cc3ccc4O)[C@H](O)c3ccc(c(Cl)c3)Oc3cc2cc(c3O[C@@H]2O[C@H](CO)[C@@H](O)[C@H](O)[C@H]2O[C@H]2C[C@](C)(N)[C@H](O)[C@H](C)O2)Oc2ccc(cc2Cl)[C@H]1O` [Vancomycin, vancomycin, reference compound]: the MIC in series [5] (Bacillus cereus) was found to be 1 µg/mL (≈ 0.69 µM); in series [6] (ATCC19115, read-out: MIC), 2 µg/mL (≈ 1.38 µM); in series [7] (Staphylococcus epidermidis, ATCC12228, read-out: MIC) it was 1 µg/mL (≈ 0.69 µM); in series [8] (Staphylococcus aureus, ATCC25923, read-out: MIC), 1 µg/mL (≈ 0.69 µM); in [9] (ATCC6633, 18 h, read-out: MIC), 1 µg/mL (≈ 0.69 µM); in series [10] (Enterococcus faecalis, ATCC29212, read-out: MIC) it was 1 µg/mL (≈ 0.69 µM). In series [11] (Staphylococcus aureus, ATCC6538, read-out: MIC), the MIC amounted to 1 µg/mL (≈ 0.69 µM).
